Read-outs that look alike come from different tables or passages of the source.
Legend:
[1] = tested on: Influenza A virus PC/1/73; assay: microbe, parasite or virus in culture; assay type: cell-based; settings: read-out: Infl A PC/1/73 EC50
[2] = tested on: Influenza B virus B/Lee/40; assay: Normal Human Bronchial/Tracheal Epithelial Cell Influenza Infection Assay (EC50), Influenza B Lee/40; assay type: cell-based; settings: Normal Human Bronchial/Tracheal Epithelial Cells, 10 MOI, five day incubation, neuramidase substrate fluorescence, read-out: Infl B Lee/40 EC50
Experimental: Normal Human Bronchial/Tracheal Epithelial Cell Influenza Infection Assay (EC50)
Normal Human Bronchial/Tracheal Epithelial Cells (Lonza, Basel Switzerland) are seeded to 384-well plates at a density of 4000 cells per well in BEGM medium supplemented with growth factors (Lonza, Basel Switzerland). Medium is removed next day, and cells are washed three times with 100 μL of RPMI+1% BSA (RPMI-BSA). 30 μL of RPMI-BSA is added to cells thereafter. Compounds are 3-fold serially diluted in DMSO, and 0.4 μL of compound dilutions are stamped to plates. Influenza A virus HK/8/68 (Advanced Biotechnology Inc, Columbia, Md., 13.5 MOI), PC/1/73 (ATCC Manassas, Va., 0.3 MOI) and Influenza B virus B/Lee/40 ((ATCC Manassas, Va., 10 MOI) are added to cells in 10 μL of RPMI-BSA medium supplemented with 8 ug/mL trypsin (Worthington, Lakewood, N.J.). After a five day incubation, 40 μL of buffer containing 66 mM Mes pH 6.5, 8 mM CaCl2, 0.5% NP-40 and 100 μM neuramidase substrate (2′-(4-Methylumbelliferyl)-α-D-N-acetylneuraminic acid sodium salt hydrate, Sigma Aldrich, St. Luis, Mo.) is added to cells. Fluorescence of the product of hydrolysis is read using excitation at 360 nm and emission at 450 nm after a 1 hour incubation at 37° C. EC50 values are calculated by non-linear regression of multiple data sets.

Influenza RNA polymerase = Influenza RNA polymerase (Influenza A virus, UniProt P03431); assay: Influenza RNA Polymerase Inhibition (IC50) Assay; assay type: biochemical; settings: virus lysate of Influenza A/PR/8/34 (H1N1), 30° C. for 90 minutes, α-33P labeled NTP incorporation
Sequence of Influenza RNA polymerase (P03431 whole entry, looked up): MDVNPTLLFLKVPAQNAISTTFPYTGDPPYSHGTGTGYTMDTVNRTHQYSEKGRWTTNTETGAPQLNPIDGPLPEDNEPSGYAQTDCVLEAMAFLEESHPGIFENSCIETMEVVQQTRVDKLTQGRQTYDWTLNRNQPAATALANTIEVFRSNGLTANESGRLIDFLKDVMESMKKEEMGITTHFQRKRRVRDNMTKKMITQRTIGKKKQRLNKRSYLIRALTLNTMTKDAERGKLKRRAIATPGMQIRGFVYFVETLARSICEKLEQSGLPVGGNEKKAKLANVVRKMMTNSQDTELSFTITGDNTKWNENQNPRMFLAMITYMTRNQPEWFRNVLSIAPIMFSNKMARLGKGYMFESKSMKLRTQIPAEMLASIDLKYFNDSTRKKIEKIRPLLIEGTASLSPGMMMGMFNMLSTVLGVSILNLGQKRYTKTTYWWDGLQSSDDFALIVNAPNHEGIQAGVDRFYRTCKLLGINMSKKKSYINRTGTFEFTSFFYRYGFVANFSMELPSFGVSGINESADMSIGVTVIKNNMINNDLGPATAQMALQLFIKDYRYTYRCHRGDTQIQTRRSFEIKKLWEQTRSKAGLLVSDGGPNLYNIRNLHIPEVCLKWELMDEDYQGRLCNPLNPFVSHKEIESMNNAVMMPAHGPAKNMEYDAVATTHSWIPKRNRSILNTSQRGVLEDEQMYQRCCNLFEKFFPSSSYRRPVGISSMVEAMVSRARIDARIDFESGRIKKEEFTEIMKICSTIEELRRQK
Experimental: Influenza RNA Polymerase Inhibition (IC50) Assay
Influenza A/PR/8/34 (H1N1) purified virus was obtained from Advanced Biotechnologies Inc. (Columbia, Md.) as suspension in PBS buffer. Virions were disrupted by exposure to an equal volume of 2% Triton X-100 for 30 minutes at room temperature in a buffer containing 100 mM Tris-HCl, pH 8, 200 mM KCl, 3 mM dithiothreitol [DTT], 10% glycerol, 10 mM MgCl2, 2 U/mL RNasin Ribonuclease Inhibitor, and 2 mg/mL Lysolechithin type V (Sigma, Saint Louis, Mo.). The virus lysate was stored at −80° C. in aliquots.
The concentrations refer to final concentrations unless mentioned otherwise. Nucleotide analog inhibitors were serially diluted 3 fold in water and added to reaction mix containing 10% virus lysate (v/v), 100 mM Tris-HCl (pH 8.0), 100 mM KCl, 1 mM DTT, 10% glycerol, 0.25% Triton-101 (reduced), 5 mM MgCl2, 0.4 U/mL RNasin, and 200 μM ApG dinucleotide primer (TriLink, San Diego Calif.). […]
Reactions were incubated at 30° C. for 90 minutes then spotted onto DE81 filter paper. Filters were air dried, washed 0.125 M Na2HPO4 (3×), water (1×), and EtOH (1×), and air dried before exposed to Typhoon phosphor imager and radioactivity was quantified on a Typhoon Trio (GE Healthcare, Piscataway N.J.). […]

Row | SMILES | EC50 [1] | EC50 [2] | EC50 ([1]; Influenza A virus, Epithelial cell, 120 h) | EC50 ([2]; Influenza B virus, Epithelial cell, 120 h) | IC50 (Influenza RNA polymerase)
1 | Nc1nn2c([C@@H]3O[C@H](CO)[C@@H](O)[C@@H]3F)cnc2c(=O)[nH]1 [Compound 7] | 27 µM | 37 µM |  |  | 
2 | Nc1nc(F)nn2c([C@@H]3O[C@H](CO)[C@@H](O)[C@H]3F)cnc12 [Compound 12, (2R,3R,4R,5S)-5-(4-amino-2-fluoroimidazo[1,2-f][1,2,4]triazin-7-yl)-4-fluoro-2-(hydroxymethyl)tetrahydrofuran-3-ol] | > 100 µM | > 100 µM |  |  | 
3 | Nc1ncnn2c([C@H]3O[C@@H](CO)[C@H](O)[C@H]3F)cnc12 [Compound 10, (2S,3S,4R,5R)-5-(4-aminoimidazo[1,2-f][1,2,4]triazin-7-yl)-4-fluoro-2-(hydroxymethyl)tetrahydrofuran-3-ol] | 0.9 µM | 0.9 µM |  |  | 
4 | COc1nc(N)nn2c([C@@H]3O[C@H](CO)[C@@H](O)[C@H]3F)cnc12 [Compound 19, (2R,3R,4R,5S)-5-(2-amino-4-methoxyimidazo[1,2-f][1,2,4]triazin-7-yl)-4-fluoro-2-(hydroxymethyl)tetrahydrofuran-3-ol] |  |  | 30 µM | 36 µM | 
5 | Nc1nc(N)c2ncc(C3OC(CO)C(O)C3F)n2n1 [Compound 6, (2S,3S,4R,5R)-5-(2,4-diaminoimidazo[1,2-f][1,2,4]triazin-7-yl)-4-fluoro-2-(hydroxymethyl)tetrahydrofuran-3-ol] | 21 µM | 51 µM |  |  | 
6 | Nc1nn2c([C@@H]3O[C@H](COP(=O)(O)OP(=O)(O)OP(=O)(O)O)[C@@H](O)[C@H]3F)cnc2c(=O)[nH]1 [Compound 8, ((2R, 3R, 4R, 5S)-5-(2-amino-4-oxo-3,4-dihydroimidazo[1,2-J][1,2,4]triazin-7-yl)-4-fluoro-3-hydroxy-3-hydroxytetrahydrofuran-2-yl)methyl tetrahydrogen triphosphate] |  |  |  |  | 2.8 µM
7 | CCOc1nc(N)nn2c([C@@H]3O[C@H](CO)[C@@H](O)[C@H]3F)cnc12 [Compound 18, (2R,3R,4R,5S)-5-(2-amino-4-ethoxyimidazo[1,2-f][1,2,4]triazine-7-yl)-4-fluoro-2-(hydroxymethyl)tetrahydrofuran-3-ol] | > 200 µM | > 200 µM |  |  | 

From patent US10941177B2, “2′-substituted carba-nucleoside analogs for antiviral treatment” (Gilead Sciences, Inc., priority 2012, dated 2021)
